Data on 14 compounds can be found in PubChem BioAssay (NCI).

Each structure is given as a SMILES string.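 Five compound concentrations were applied to cells in 96-well plates for 48 hours; endpoints were derived by simple linear interpolation of the resulting dose-response curve. TGI: concentration producing complete growth inhibition.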

What all share (assay): inhibition of tumour cell growth, NCI panel, 48 h
The subject of test [1] is ACHN renal.
The subject of test [2] is CCRF-CEM leukemia.
The subject of test [3] is U251 CNS.
Test [4] has as its system T-47D breast.
Test [5] deals with RPMI-8226 leukemia.
The subject of test [6] is MCF7 breast.
The test system of test [7] is BT-549 breast.
In test [8] the test system is HS 578T breast.
For test [9], the system named is HOP-92 NSCLC.
The subject of test [10] is MALME-3M melanoma.
For test [11], the system named is SR leukemia.
The subject of test [12] is SK-MEL-2 melanoma.
Test [13] has as its system MDA-MB-435.
The test system of test [14] is SN12C renal.
The subject of test [15] is HCT-15 colon.
Test [16] relates to IGROV1 ovarian.
Test [17] concerns MOLT-4 leukemia.
Test [18] concerns OVCAR-5 ovarian.
Test [19] relates to SK-MEL-28 melanoma.
The test system of test [20] is NCI-H23 lung.

As to `C=C(C)[C@H]1C[C@@H]2O[C@@](O)(/C(C)=C\C(=O)/C=C(/C)C[C@H]3OC(=O)[C@@]24O[C@H]34)[C@@H]1O`, the TGI in test [1], in [2], in [3], in test [4], in test [5] and in test [6] was > 100 µM throughout. Moreover, the TGI in [7], in [8], in [9], in [10], in test [11] and in [12] was > 100 µM throughout. The TGI in test [13], in test [14], in test [15], in [16], in test [17] and in test [18] was > 100 µM in each case. For the same compound, in [19], the TGI was > 100 µM.

On to `CCOC(=O)c1c(-c2ccccc2)nc2c(OC)nccn12`, for which the TGI in test [2], in [20], in test [3], in [4], in [5] and in [6] was > 100 µM each time. Further, the TGI in test [7], in [8], in test [10], in test [11], in test [12] and in test [13] was > 100 µM in each case. The TGI in test [14], in test [15], in test [16], in test [17] and in test [19] was > 100 µM in each case.

As to `C/C=N\n1c(C)c(C#N)c(C#N)c1N`, the TGI in test [1], in [2], in [20], in test [3], in test [4] and in test [5] was > 100 µM throughout. Besides, the TGI in [6], in test [7], in test [8], in test [9], in [10] and in [11] was > 100 µM each time. For the same compound, the TGI in test [12], in [13], in [14], in test [15], in test [16] and in [17] was > 100 µM in each case. Further, in test [18], the TGI was > 100 µM.

In the case of `CCC1c2[nH]c3ccccc3c2C[C@H]2C(=O)N3CCC[C@H]3C(=O)N12` (some centres not stated), the TGI in test [1], in test [20], in [3], in test [4], in test [5] and in [6] was > 100 µM each time. The TGI in [7], in test [8], in [9], in test [10], in test [11] and in test [12] was > 100 µM in each case. The TGI in test [13], in test [14], in test [15], in test [16], in [17] and in test [18] was > 100 µM each time. In addition, the TGI in test [19] is > 100 µM.

In the case of `O=[N+]([O-])C(=C(N1CCCCC1)N1CCCCC1)/C(Cl)=C(\Cl)[N+](=O)[O-]`, the TGI in [1] is 9.24 µM; in test [2], > 31.3 µM; in test [20], 14 µM; in test [3], 46 µM; in [4], 3.88 µM; in test [5], 13.7 µM. Also, the TGI in test [6] was 7.06 µM; in test [7], 19 µM; in test [8] it was 11.6 µM; in test [9], 6.6 µM; in test [10], 6.28 µM; in [11], > 100 µM. Further, the TGI was found to be 35.1 µM in test [12]; 19.3 µM in test [13]; 4.8 µM in [14]; 5.48 µM in test [15]; 3.29 µM in test [16]; 35.5 µM in [18]. In [19], this compound yielded a TGI of 37.3 µM.

Take `CC1OC(OC2C(CO)OC(O[C@H]3CC[C@@]4(C)C(=CC[C@H]5[C@@H]6C[C@@H]7O[C@](O)(CC[C@H](C)COC8OC(CO)C(O)C(O)C8O)[C@@H](C)[C@@H]7[C@@]6(C)CC[C@@H]54)C3)C(OC3OC(C)C(O)C(O)C3O)C2O)C(O)C(O)C1O` (some centres not stated): the TGI in test [1] was 40.3 µM; in test [2], 4.47 µM; in test [20] it was 17.4 µM; in test [3], > 33 µM; in test [4] it was 17 µM; in test [5] it was 17.4 µM. The TGI in test [6] was > 65.5 µM; in test [7], 18 µM; in [8] it was 6.71 µM; in [9], 12.7 µM; in test [10], 18.9 µM; in [11], > 100 µM. The TGI in test [12] was 20 µM; in [13], 7.03 µM; in [14] it was > 26 µM; in [15], 10 µM; in test [16], 23.1 µM; in test [18], > 49.1 µM. In addition, the TGI in test [19] worked out at 12 µM.

Take `CNC(=O)C1CCCN1C(=O)C(Cc1cnc[nH]1)NC(=O)C1CCC(=O)N1` (configuration not stated): the TGI in [1], in test [2], in [20], in test [3], in [4] and in [5] was > 100 µM in each case. For the same compound, the TGI in test [6], in test [7], in test [8], in test [9], in test [10] and in test [11] was > 100 µM throughout. Moreover, the TGI in [13], in [14], in test [15], in test [16], in test [17] and in test [18] was > 100 µM in each case. For the same compound, the TGI in test [19] is > 100 µM.

`CCC(CCN)(CCN)[N+](=O)[O-]`: the TGI in test [3], in [4], in test [5], in test [6], in test [7] and in [8] was > 100 µM throughout. Also, the TGI in test [9], in test [10], in test [11], in [12], in test [13] and in [14] was > 100 µM throughout. Further, the TGI in test [15], in [16], in test [17] and in test [18] was > 100 µM each time.

In the case of `CCC1c2[nH]c3ccccc3c2C[C@H]2C(=O)NC(CCCCNC(=O)OC(C)(C)C)C(=O)N12` (some centres not stated), the TGI in [1] is > 100 µM; in test [20], 59.6 µM; in test [3], > 100 µM; in test [4] it was > 100 µM; in [5], 63.3 µM; in test [6], > 100 µM. Further, the TGI came out at 58.2 µM in test [7]; 76.2 µM in [8]; 94.4 µM in test [9]; 50.5 µM in [10]; 92.8 µM in test [11]; 57.8 µM in test [12]. For the same compound, the TGI in test [13] is 44.3 µM; in [14], > 100 µM; in [15], > 100 µM; in test [16], > 100 µM; in [17], 43.5 µM; in test [18], > 100 µM. Moreover, the TGI in [19] is > 100 µM.

Turning to `c1ccc2sc(C3(N4CCC5(CC4)OCCO5)CCCCC3)cc2c1`, the TGI in [1], in [2], in test [20], in [4], in [5] and in test [6] was > 100 µM throughout. For the same compound, the TGI in test [7], in [8], in test [9], in test [10], in [11] and in test [13] was > 100 µM throughout. Besides, the TGI in test [14], in [15], in [16], in test [17], in test [18] and in test [19] was > 100 µM throughout.

As for `CC(C)[Si](OC1=C(c2ccccc2)C(NC(=O)/C=C/c2ccc([N+](=O)[O-])cc2)CCC1)(C(C)C)C(C)C` (configuration not stated), the TGI in test [2], in test [20], in [3], in test [4], in test [5] and in test [6] was > 100 µM throughout. Further, the TGI in test [7], in [8], in [9], in test [10], in test [11] and in test [12] was > 100 µM in each case. Also, the TGI in [13], in [15], in test [16], in [17] and in test [18] was > 100 µM in each case.

As to `CC1=CC(=O)[C@@H](O)[C@]2(C)[C@H]3[C@@]4(O)OC[C@@]35[C@@H](C[C@@H]12)OC(=O)C(OC(=O)CC1=CCCC1)[C@H]5[C@@H](C)[C@H]4O` (some centres not stated), the TGI in test [1] was 0.35 µM; in test [2], 0.136 µM; in test [20], 0.152 µM; in test [4] it was > 23.2 µM; in [5], 0.039 µM; in test [6], 0.656 µM. Besides, the TGI in [7] is 0.198 µM; in [8] it was 0.136 µM; in test [9], 1.15 µM; in test [10], 0.0666 µM; in test [11] it was > 100 µM; in test [12], 0.237 µM. The TGI in test [13] is 0.443 µM; in [14] it was 0.435 µM; in test [16], 0.112 µM; in test [17] it was 2.53 µM; in test [18] it was 0.687 µM; in test [19], 1.25 µM.

Regarding `C/C(=N\Nc1nc2ccccc2s1)c1cnccn1`, the TGI in test [1] was 21.1 µM; in [2] it was > 100 µM; in [20] it was 12.3 µM; in [3], > 100 µM; in test [4], > 100 µM; in test [5], > 47.8 µM. Further, the TGI in test [6] is 20.2 µM; in test [7] it was > 100 µM; in test [8], 20 µM; in test [9] it was > 28.3 µM; in test [10], 43.7 µM; in test [11], > 100 µM. The TGI was 49.9 µM in [12]; > 100 µM in [13]; > 80.8 µM in test [14]; 18.2 µM in test [15]; 7.28 µM in test [16]; > 77.7 µM in [18]. The TGI in [19] was > 100 µM.

`CSc1ccc(-c2cc(-c3nc4ccccc4[nH]3)nc(N)c2C#N)cc1`: the TGI in [1] is > 100 µM; in test [2] it was 80.1 µM; in test [20] it was 99.5 µM; in [4] it was 54.7 µM; in test [5] it was 77.2 µM; in test [6] it was 54.6 µM. In addition, the TGI is 59.6 µM in test [7]; > 100 µM in [8]; 42.9 µM in test [9]; 44.5 µM in test [10]; 65.8 µM in [11]; 34.2 µM in [12]. The TGI in [13] is 47.2 µM; in test [14], > 100 µM; in test [15], 61.9 µM; in test [16], 55.9 µM; in [17], 37.1 µM; in test [18] it was 75.2 µM. The TGI in test [19] was 53.2 µM.
